The results in this text go back to patent US20240208986A1, “PHENYL AZEPINES AS RIPK1 INHIBITORS AND METHODS OF USE THEREOF” (Merck Sharp & Dohme LLC, priority 2021, published 2024).

Chain of RIPK1 (recombinant GST-RIPK1 kinase domain, residues 1-327) (Q13546 1-327): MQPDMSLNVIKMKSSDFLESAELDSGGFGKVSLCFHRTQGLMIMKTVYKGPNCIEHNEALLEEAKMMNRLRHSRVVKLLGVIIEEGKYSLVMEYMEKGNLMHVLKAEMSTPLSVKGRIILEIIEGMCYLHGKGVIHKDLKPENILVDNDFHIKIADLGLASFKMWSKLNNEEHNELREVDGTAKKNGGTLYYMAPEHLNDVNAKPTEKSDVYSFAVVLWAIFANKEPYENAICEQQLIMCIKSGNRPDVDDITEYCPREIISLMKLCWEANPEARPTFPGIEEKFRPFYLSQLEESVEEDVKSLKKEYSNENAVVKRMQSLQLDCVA

The target of this assay is RIPK1 (recombinant GST-RIPK1 kinase domain, residues 1-327) (Homo sapiens (Human), UniProt Q13546). Description: RIPK1-ADP-Glo Enzymatic Assay. Format: biochemical. Particulars: 25 nM GST-RIPK1, 300 μM ATP, 3 μM dephosphorylated-MBP; 30 minutes pre-incubation, 150 minutes reaction; ten-point titration. How it is done:
The enzymatic activity of RIPK1 is measured using an assay derived from ADP-Glo kit (™Promega), which provides a luminescent-based ADP detection system. Specifically, the ADP generated by RIPK1 kinase is proportionally detected as luminescent signals in a homogenous fashion. In this context, the assessment of the inhibitory effect of small molecules (EC50) is measured by the effectiveness of the compounds to inhibit the ATP to ADP conversion by RIPK1.
In this assay, the potency (EC50) of each compound was determined from a ten-point (1:3 serial dilution; top compound concentration of 100000 nM) titration curve using the following outlined procedure. To each well of a white ProxiPlus 384 well-plate, 30 nL of compound (1% DMSO in final assay volume of 3 μL) was dispensed, followed by the addition of 2 μL of 1× assay buffer (25 mM Hepes 7.3, 20 mM MgCl2, 50 mM NaCl, 1 mM DTT, 0.005% Tween20, and 0.02% BSA) containing 37.5 nM of GST-RIPK1 (recombinant GST-RIPK1 kinase domain (residues 1-327) enzyme produced from baculovirus-transfected Sf21 cells: MW=62 kDa). Plates were placed in an ambient temperature humidified chamber for a 30 minutes pre-incubation with compound. Subsequently, each reaction was initiated by the addition of 1 μL 1× assay buffer containing 900 μM ATP and 3 μM dephosphorylated-MBP substrate. The final reaction in each well of 3 μL consists of 25 nM of GST-RIPK1, 300 μM ATP, and 3 μM dephosphorylated-MBP. Kinase reactions were allowed to proceed for 150 minutes prior to adding ADP-Glo reagents per Promega's outlined kit protocol. Dose-response curves were generated by plotting percent effect (% product conversion; Y-axis) vs. Log10 compound concentrations (X-axis). EC50 values were calculated using a non-linear regression, four-parameters sigmoidal dose-response model.
`O=C(N1C[C@@H]2C[C@H]1c1ccccc1O2)C12CCC(CC1)CC2` [Compound 1-43, (bicyclo[2.2.2]octan-1-yl)[(2S,5S)-2,3-dihydro-2,5-methano-1,4-benzoxazepin-4(5H)-yl]methanone]: the IC50 (usually the concentration that inhibits the measured activity by half) is 0.018 µM. As for `O=C(N1C[C@@H]2C[C@H]1c1ccccc1O2)C1(C(F)F)CCCC1` [Compound 1-13, [1-(difluoromethyl)cyclopentyl] [(2S,5S)-2,3-dihydro-2,5-methano-1,4-benzoxazepin-4(5H)-yl]methanone], the figure is 0.104 µM.

`CC1(C(=O)N2C[C@@H]3C[C@H]2c2ccccc2O3)CC1(Cl)Cl` (mixture of isomers) [Compound 1-20, [(R and S)-2,2-dichloro-1-methylcyclopropyl]-[(2S,5S)-2,3-dihydro-2,5-methano-1,4-benzoxazepin-4(5H)-yl]methanone]: the concentration for half-maximal inhibition (IC50) turned out to be 0.062 µM. As for `O=C(NCc1ccc(Cl)cc1)C(=O)N1CC2C[C@H]1c1ccccc1O2` (stereo in doubt) [Compound 1-56, N-[(4-chlorophenyl)methyl]-2-[(2R,5S)-2,3-dihydro-2,5-methano-1,4-benzoxazepin-4(5H)-yl]-2-oxoacetamide], the figure is 0.863 µM; as for `CC(F)(F)C(C)(C)C(=O)N1C[C@@H]2C[C@H]1c1ccc(Cl)cc1O2` [Compound 2-16, 1-((2S,5S)-8-chloro-2,3-dihydro-2,5-methanobenzo[f][1,4]oxaze-pin-4(5H)-yl)-3,3-difluoro-2,2-dimethylbutan-1-one], 0.035 µM. As for `O=C(N1C[C@@H]2C[C@H]1c1ccccc1O2)C12CCC(c3ccccc3)(CC1)CC2` [Compound 1-51, [(2S,5S)-2,3-dihydro-2,5-methano-1,4-benzoxazepin-4(5H)-yl](4-phenylbicyclo[2.2.2]octan-1-yl)methanone], the figure is 0.723 µM. As to `C[C@@]12C[C@@H](c3ccccc3O1)N(C(=O)C13CCC(F)(CC1)C3)C2` (single isomer, unassigned) [Compound 3-8], the IC50 was found to be 3.98 µM. With `CN(C)C1(C(=O)N2C[C@@H]3C[C@H]2c2ccccc2O3)CCC1` [Compound 1-25, [(2S,5S)-2,3-dihydro-2,5-methano-1,4-benzoxazepin-4(5H)-yl][1-(dimethylamino)cyclobutyl] methanone] the figure was 0.14 µM. With `CC(C)(C)CC(=O)N1C[C@@H]2C[C@H]1c1ccccc1O2` [Compound 1-21, 1-[(2S,5S)-2,3-dihydro-2,5-methano-1,4-benzoxazepin-4(5H)-yl]-3,3-dimethylbutan-1-one] the figure was 0.888 µM; with `CC(C)(C(=O)N1C[C@@H]2C[C@H]1c1ccccc1O2)C(F)(F)F` [Compound 1-18, 1-[(2S,5S)-2,3-dihydro-2,5-methano-1,4-benzoxazepin-4(5H)-yl]-3,3,3-trifluoro-2,2-dimethylpropan-1-one], 0.073 µM.

Consider `CC1(C(=O)N2C[C@@H]3C[C@H]2c2ccccc2O3)CCC1` [Compound 1-3, ((2S,5S)-2,3-dihydro-2,5-methanobenzo[f][1,4]oxaze-pin-4(5H)-yl)(1-methylcyclobutyl)methanone], for which the IC50 came out at 0.097 µM. As for `CC(F)(F)C1(C(=O)N2C[C@@H]3C[C@H]2c2ccccc2O3)CCC1` [Compound 1-12, [1-(1,1-difluoroethyl)cyclobutyl] [(2S,5S)-2,3-dihydro-2,5-methano-1,4-benzoxazepin-4(5H)-yl]methanone], the figure is 0.086 µM. As for `O=C(N1C[C@@H]2C[C@H]1c1ccccc1O2)C12CC3CC(CC(C3)C1)C2` [Compound 1-23, [(2S,5S)-2,3-dihydro-2,5-methano-1,4-benzoxazepin-4(5H)-yl][(3R,5R,7R)-tricyclo[3.3.1.1~3,7~]decan-1-yl]methanone], the figure is 0.234 µM. As for `CC(C)(CC#N)C(=O)N1C[C@@H]2C[C@H]1c1cc(F)cc(F)c1O2` [Compound 2-27, 4-[(2S,5S)-7,9-difluoro-2,3-dihydro-2,5-methano-1,4-benzoxazepin-4(5H)-yl]-3,3-dimethyl-4-oxobutanenitrile], the figure is 0.016 µM.

Regarding `CC(C)(CC#N)C(=O)N1C[C@H]2Cc3ccccc3[C@@H]1C2` [Compound 3-3, 3,3-dimethyl-4-oxo-4-((1S,4S)-1,3,4,5-tetrahydro-2H-1,4-methanobenzo[c]azepin-2-yl)butanenitrile], the IC50 was 1.49 µM. With `CC(C)(CC#N)C(=O)N1C[C@@H]2C[C@H]1c1ccc(Cl)cc1O2` [Compound 2-23, 4-((2S,5S)-8-chloro-2,3-dihydro-2,5-methanobenzo[f][1,4]oxaze-pin-4(5H)-yl)-3,3-dimethyl-4-oxobutanenitrile] the figure was 0.049 µM; with `O=C(N1C[C@@H]2C[C@H]1c1ccccc1O2)C12CCC(C(F)F)(CC1)C2` [Compound 1-41, (4-(difluoromethyl)bicyclo [2.2.1]heptan-1-yl)((2S,5S)-2,3-dihydro-2,5-methanobenzo[f][1,4]oxaze-pin-4(5H)-yl)methanone], 0.013 µM; with `CC(C)(C(=O)N1C[C@@H]2C[C@H]1c1cc(C#N)ccc1O2)C(F)F` [Compound 2-2, (2S,5S)-4-(3,3-difluoro-2,2-dimethylpropanoyl)-2,3,4,5-tetrahydro-2,5-methano-1,4-benzoxazepine-7-carbonitrile], 0.158 µM. With `CC1(C(=O)N2C[C@@H]3C[C@H]2c2ccccc2O3)CCCCC1` [Compound 1-5, ((2S,5S)-2,3-dihydro-2,5-methanobenzo[f][1,4]oxaze-pin-4(5H)-yl)(1-methylcyclohexyl)methanone], the IC50 came to 0.042 µM. With `C[C@@]12C[C@@H](c3ccccc3O1)N(C(=O)C13CCC(CC1)C3)C2` (single isomer, unassigned) [Compound 3-7] the figure was 6.58 µM. As for `CC1(C)C2CCC1(C(=O)N1C[C@@H]3C[C@H]1c1ccccc1O3)CC2` [Compound 1-45, [(2S,5S)-2,3-dihydro-2,5-methano-1,4-benzoxazepin-4(5H)-yl](7,7-dimethylbicyclo[2.2.1]heptan-1-yl)methanone], the figure is 0.168 µM. With `O=C(N1C[C@@H]2C[C@H]1c1ccccc1O2)C12CCC(C(F)F)(CC1)CC2` [Compound 1-54, [4-(difluoromethyl)bicyclo [2.2.2]octan-1-yl][(2S,5S)-2,3-dihydro-2,5-methano-1,4-benzoxazepin-4(5H)-yl]methanone] the figure was 0.263 µM. `O=C(N1C[C@@H]2C[C@H]1c1cc(F)cc(F)c1O2)C12CCC(F)(CC1)C2` [Compound 2-35, ((2S,5S)-7,9-difluoro-2,3-dihydro-2,5-methanobenzo[f][1,4]oxaze-pin-4(5H)-yl)(4-fluorobicyclo[2.2.1]heptan-1-yl)methanone]: the IC50 came out at 0.012 µM. Regarding `CC(CF)(CF)C(=O)N1C[C@@H]2C[C@H]1c1ccccc1O2` [Compound 1-33, 1-[(2S,5S)-2,3-dihydro-2,5-methano-1,4-benzoxazepin-4(5H)-yl]-3-fluoro-2-(fluoromethyl)-2-methylpropan-1-one], the IC50 is 0.881 µM. `C[C@@]12C[C@@H](c3ccccc3O1)N(C(=O)C13CCC(C(F)(F)F)(CC1)C3)C2` (single isomer, unassigned) [Compound 3-9]: the IC50 was 2.41 µM. As to `O=C(N1C[C@@H]2C[C@H]1c1ccccc1O2)C12CCC(CC1)C2` [Compound 1-4, bicyclo[2.2.1]heptan-1-yl((2S,5S)-2,3-dihydro-2,5-methanobenzo[f][1,4]oxaze-pin-4(5H)-yl)methanone], the IC50 is 0.033 µM.
